Starred links: 1 amine or outer side, 2 acyl side, 3 side chain; linkers in the order of their positions; H or OH if unused. Positions of bridges follow the written chain, without caps; N, C: chain ends. Non-standard residues stand in square brackets, D forms with d. Residues, ends and D or L forms follow the SMILES beside them. Groups on a side chain read outwards from the residue. *: point of attachment. Docosanoyl = CCCCCCCCCCCCCCCCCCCCCC(=O)*; γGlu = O=C(O)[C@H](CCC(=O)[*:2])N[*:1]; Palmitoyl = CCCCCCCCCCCCCCCC(=O)*; AEEA = NCCOCCOCC(=O)O
Experiment: in vivo
Parameters: species or system Sprague-Dawley rats
Conditions: rat, iv, 0.033 mg/kg
Method in brief: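 Peptide plasma levels measured by UPLC-MS/MS (C18, product-ion monitoring) after protein precipitation or WCX SPE, calibrated in K2EDTA/protease-inhibitor rat plasma. Dosing in non-fasted male Sprague-Dawley rats (n=3): 0.033 mg/kg over 1 h by IV or SC infusion, or 0.3 mg/kg SC bolus; sampling up to 48 h.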

| Vd | clearance | half-life | SMILES |
| --- | --- | --- | --- |
| 0.239 L/kg | 2.11 mL/min/kg | 1.8 h | CCCCCCCCCCCCCCCC(=O)N[C@@H](CCC(=O)NCCCC[C@H](NC(=O)[C@H](CCCNC(=N)N)NC(=O)[C@H](CCC(N)=O)NC(=O)[C@@H](NC(=O)[C@H](C)NC(=O)[C@@H]1CSSC[C@H](NC(=O)[C@@H](N)CO)C(=O)N[C@@H](CC(N)=O)C(=O)N[C@@H]([C@@H](C)O)C(=O)N[C@@H](CO)C(=O)N[C@@H]([C@@H](C)O)C(=O)N1)[C@@H](C)O)C(=O)N[C@@H](C)C(=O)N[C@@H](CC(N)=O)C(=O)N[C@@H](CCC(=O)O)C(=O)N[C@@H](CC(C)C)C(=O)N[C@@H](Cc1c[nH]cn1)C(=O)N[C@@H](CCCCN)C(=O)N[C@@H](CO)C(=O)N[C@@H](CO)C(=O)N[C@@H](CC(N)=O)C(=O)N[C@@H](CC(N)=O)C(=O)N[C@@H](Cc1ccccc1)C(=O)NCC(=O)N1CCC[C@H]1C(=O)N[C@H](C(=O)N[C@@H](CC(C)C)C(=O)N1CCC[C@H]1C(=O)N1CCC[C@H]1C(=O)N[C@H](C(=O)N[C@@H](CCCCN)C(=O)N[C@H](C(=O)NCC(=O)N[C@@H](CO)C(=O)N[C@@H](CCC(=O)O)C(=O)N[C@H](C(=O)N[C@@H](Cc1ccc(O)cc1)C(N)=O)[C@@H](C)O)C(C)C)[C@@H](C)O)[C@@H](C)CC)C(=O)O [Compound A121] (H-SCNTSTCATQRK([γGlu-Palmitoyl])ANELHKSSNNFGPILPPTKVGSETY-NH2; disulfide 2-7) |
| 0.763 L/kg | 1.95 mL/min/kg | 5.13 h | CCCCCCCCCCCCCCCC(=O)N[C@@H](CCC(=O)NCCOCCOCC(=O)NCCOCCOCC(=O)N[C@@H](CCC(=O)N[C@@H](CCC(=O)NCCCC[C@H](NC(=O)[C@H](CCC(=O)O)NC(=O)[C@H](CC(N)=O)NC(=O)[C@H](C)NC(=O)[C@H](CC(C)C)NC(=O)[C@H](CCCNC(=N)N)NC(=O)[C@H](CCC(N)=O)NC(=O)[C@@H](NC(=O)[C@H](C)NC(=O)[C@@H]1CSSC[C@H](NC(=O)[C@@H](N)CO)C(=O)N[C@@H](CC(N)=O)C(=O)N[C@@H]([C@@H](C)O)C(=O)N[C@@H](CO)C(=O)N[C@@H]([C@@H](C)O)C(=O)N1)[C@@H](C)O)C(=O)N[C@@H](Cc1c[nH]cn1)C(=O)N[C@@H](CCCCN)C(=O)N[C@@H](CO)C(=O)N[C@@H](CO)C(=O)N[C@@H](CC(N)=O)C(=O)N[C@@H](CC(N)=O)C(=O)N[C@@H](Cc1ccccc1)C(=O)NCC(=O)N1CCC[C@H]1C(=O)N[C@H](C(=O)N[C@@H](CC(C)C)C(=O)N1CCC[C@H]1C(=O)N1CCC[C@H]1C(=O)N[C@H](C(=O)N[C@@H](CCCCN)C(=O)N[C@H](C(=O)NCC(=O)N[C@@H](CO)C(=O)N[C@@H](CCC(=O)O)C(=O)N[C@H](C(=O)N[C@@H](Cc1ccc(O)cc1)C(N)=O)[C@@H](C)O)C(C)C)[C@@H](C)O)[C@@H](C)CC)C(=O)O)C(=O)O)C(=O)O [Compound A122] (H-SCNTSTCATQRLANEK([γGlu-γGlu-AEEA-AEEA-γGlu-Palmitoyl])HKSSNNFGPILPPTKVGSETY-NH2; disulfide 2-7; N-terminus assumed) |
| 0.146 L/kg | 0.58 mL/min/kg | 3.2 h | CCCCCCCCCCCCCCCC(=O)N[C@@H](CCC(=O)N[C@@H](CCC(=O)NCCCC[C@H](NC(=O)[C@H](CCC(=O)O)NC(=O)[C@H](CC(N)=O)NC(=O)[C@H](C)NC(=O)[C@H](CC(C)C)NC(=O)[C@H](CCCNC(=N)N)NC(=O)[C@H](CCC(N)=O)NC(=O)[C@@H](NC(=O)[C@H](C)NC(=O)[C@@H]1CSSC[C@H](NC(=O)[C@@H](N)CO)C(=O)N[C@@H](CC(N)=O)C(=O)N[C@@H]([C@@H](C)O)C(=O)N[C@@H](CO)C(=O)N[C@@H]([C@@H](C)O)C(=O)N1)[C@@H](C)O)C(=O)N[C@@H](Cc1c[nH]cn1)C(=O)N[C@@H](CCCCN)C(=O)N[C@@H](CO)C(=O)N[C@@H](CO)C(=O)N[C@@H](CC(N)=O)C(=O)N[C@@H](CC(N)=O)C(=O)N[C@@H](Cc1ccccc1)C(=O)NCC(=O)N1CCC[C@H]1C(=O)N[C@H](C(=O)N[C@@H](CC(C)C)C(=O)N1CCC[C@H]1C(=O)N1CCC[C@H]1C(=O)N[C@H](C(=O)N[C@@H](CCCCN)C(=O)N[C@H](C(=O)NCC(=O)N[C@@H](CO)C(=O)N[C@@H](CCC(=O)O)C(=O)N[C@H](C(=O)N[C@@H](Cc1ccc(O)cc1)C(N)=O)[C@@H](C)O)C(C)C)[C@@H](C)O)[C@@H](C)CC)C(=O)O)C(=O)O [Compound A123] (H-SCNTSTCATQRLANEK([γGlu-γGlu-Palmitoyl])HKSSNNFGPILPPTKVGSETY-NH2; disulfide 2-7) |
| 0.273 L/kg | 1.72 mL/min/kg | 2.14 h | CCCCCCCCCCCCCCCCCCCCCC(=O)N[C@@H](CCC(=O)N[C@@H](CCC(=O)NCCCC[C@@H](NC(=O)[C@H](CCC(=O)O)NC(=O)[C@H](CC(N)=O)NC(=O)[C@H](C)NC(=O)[C@H](CC(C)C)NC(=O)[C@H](CCCNC(=N)N)NC(=O)[C@H](CCC(N)=O)NC(=O)[C@@H](NC(=O)[C@H](C)NC(=O)[C@@H]1CSSC[C@H](NC(=O)[C@@H](N)CO)C(=O)N[C@@H](CC(N)=O)C(=O)N[C@@H]([C@@H](C)O)C(=O)N[C@@H](CO)C(=O)N[C@@H]([C@@H](C)O)C(=O)N1)[C@@H](C)O)C(=O)N[C@@H](Cc1c[nH]cn1)C(=O)N[C@@H](CCCCN)C(=O)N[C@@H](CO)C(=O)N[C@@H](CO)C(=O)N[C@@H](CC(N)=O)C(=O)N[C@@H](CC(N)=O)C(=O)N[C@@H](Cc1ccccc1)C(=O)NCC(=O)N1CCC[C@H]1C(=O)N[C@H](C(=O)N[C@@H](CC(C)C)C(=O)N1CCC[C@H]1C(=O)N1CCC[C@H]1C(=O)N[C@H](C(=O)N[C@@H](CCCCN)C(=O)N[C@H](C(=O)NCC(=O)N[C@@H](CO)C(=O)N[C@@H](CCC(=O)O)C(=O)N[C@H](C(=O)N[C@@H](Cc1ccc(O)cc1)C(N)=O)[C@@H](C)O)C(C)C)[C@@H](C)O)[C@@H](C)CC)C(=O)O)C(=O)O [Compound A124] (H-SCNTSTCATQRLANE[dK]([γGlu-γGlu-Docosanoyl])HKSSNNFGPILPPTKVGSETY-NH2; disulfide 2-7) |
| 0.211 L/kg | 3.56 mL/min/kg | 0.963 h | CCCCCCCCCCCCCCCC(=O)N[C@@H](CCC(=O)NCCCC[C@H](NC(=O)[C@H](CCC(=O)O)NC(=O)[C@H](CC(N)=O)NC(=O)[C@H](C)NC(=O)[C@H](CC(C)C)NC(=O)[C@H](CCCNC(=N)N)NC(=O)[C@H](CCC(N)=O)NC(=O)[C@@H](NC(=O)[C@H](C)NC(=O)[C@@H]1CSSC[C@H](NC(=O)[C@@H](N)CO)C(=O)N[C@@H](CC(N)=O)C(=O)N[C@@H]([C@@H](C)O)C(=O)N[C@@H](CO)C(=O)N[C@@H]([C@@H](C)O)C(=O)N1)[C@@H](C)O)C(=O)N[C@@H](Cc1c[nH]cn1)C(=O)N[C@@H](CCCCN)C(=O)N[C@@H](CO)C(=O)N[C@@H](CO)C(=O)N[C@@H](CC(N)=O)C(=O)N[C@@H](CC(N)=O)C(=O)N[C@@H](Cc1ccccc1)C(=O)NCC(=O)N1CCC[C@H]1C(=O)N[C@H](C(=O)N[C@@H](CC(C)C)C(=O)N1CCC[C@H]1C(=O)N1CCC[C@H]1C(=O)N[C@H](C(=O)N[C@@H](CCCCN)C(=O)N[C@H](C(=O)NCC(=O)N[C@@H](CO)C(=O)N[C@@H](CCC(=O)O)C(=O)N[C@H](C(=O)N[C@@H](Cc1ccc(O)cc1)C(N)=O)[C@@H](C)O)C(C)C)[C@@H](C)O)[C@@H](C)CC)C(=O)O [Compound A125] (H-SCNTSTCATQRLANEK([γGlu-Palmitoyl])HKSSNNFGPILPPTKVGSETY-NH2; disulfide 2-7) |

Source: patent US12018059B2, “Human amylin analog polypeptides and methods of use” (Intarcia Therapeutics, Inc., priority 2018, dated 2024)
